How the values were obtained:
Format in all cases: in vivo
[1] = test system: green foxtail (Setaria viridis (L.) P. Beauv.); test: Test Example 3: herbicidal effect by application to upland field (foliage treatment); settings: 14th day after application; for herbicidal effect, Green Foxtail: foliage treatment, 1,000 g active ingredient per 1 hectare, greenhouse; for herbicidal effect (index), Green Foxtail: foliage treatment, plants grown two weeks, 1,000 g active ingredient per hectare
In short: (§1)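 Sow in field soil; grow 2 weeks in greenhouse; spray foliage from above with wettable-powder dilution (1,000 g AI/ha, 1,000 L/ha); return to greenhouse; score effect at day 14 against a standard.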

[2] = test system: slender amaranth (Amaranthus viridis L.); test: as above; settings: 14th day after application; for herbicidal effect, Slender Amaranth: foliage treatment, 1,000 g active ingredient per 1 hectare, greenhouse; for herbicidal effect (index), Slender Amaranth: foliage treatment, plants grown two weeks, 1,000 g active ingredient per hectare
In short: as §1

[3] = test system: barnyardgrass (Echinochloa crus-galli (L.) P. Beauv. var. crus-galli); test: as above; settings: 14th day after application; for herbicidal effect, Barnyardgrass: foliage treatment, 1,000 g active ingredient per 1 hectare, greenhouse; for herbicidal effect (index), Barnyardgrass: foliage treatment, plants grown two weeks, 1,000 g active ingredient per hectare
In short: as §1

[4] = test system: velvetleaf (Abutilon theophrasti medicus); test: as above; settings: 14th day after application; for herbicidal effect, Velvetleaf: foliage treatment, 1,000 g active ingredient per 1 hectare, greenhouse; for herbicidal effect (index), Velvetleaf: foliage treatment, plants grown two weeks, 1,000 g active ingredient per hectare
In short: as §1

[5] = test system: green foxtail (Setaria viridis (L.) P. Beauv.); test: Test Example 2: herbicidal effect by soil application to upland field; settings: soil surface spray, upland field soil, 1,000 g active ingredient per hectare, 21st day after application
In short: (§2)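 Dose was 1,000 g active ingredient per hectare, applied as a wettable powder diluted in water and sprayed evenly over the soil of sown, covered pots at a 1,000 L/ha equivalent. Effect was judged by a standard scale 21 d later under greenhouse conditions.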

[6] = test system: slender amaranth (Amaranthus viridis L.); test: as above; settings: soil surface spray, upland field soil, 1,000 g active ingredient per hectare, 21st day after application
In short: as §2

[7] = test system: barnyardgrass (Echinochloa crus-galli (L.) P. Beauv. var. crus-galli); test: as above; settings: soil surface spray, upland field soil, 1,000 g active ingredient per hectare, 21st day after application
In short: as §2

[8] = test system: velvetleaf (Abutilon theophrasti medicus); test: as above; settings: soil surface spray, upland field soil, 1,000 g active ingredient per hectare, 21st day after application
In short: as §2

[9] = test system: early watergrass (Echinochloa oryzicola Vasing); test: Test Example 1: herbicidal effect by soil application to paddy field; settings: paddy field soil application; active ingredient 1,000 g per 1 hectare; wettable powder added dropwise to water surface the day after sowing; examined on the 21st day after application
In short: (§3)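 Plants were sown in flooded (3 cm) paddy soil and evaluated for herbicidal effect 21 days after soil application in a greenhouse.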

[10] = test system: Japanese bulrush (Scirpus juncoides Roxb.); test: as above; settings: paddy field soil application; active ingredient 1,000 g per 1 hectare; wettable powder added dropwise to water surface the day after sowing; examined on the 21st day after application
In short: as §3

[11] = test system: heartshape false pickerelweed (Monochoria vaginalis (Burm.f.) C.Presl); test: as above; settings: paddy field soil application; active ingredient 1,000 g per 1 hectare; wettable powder added dropwise to water surface the day after sowing; examined on the 21st day after application
In short: as §3

Structure (SMILES): CCCS(=O)(=O)Oc1c(C(=O)c2ccc(C(F)(F)F)n(-c3cc(F)ccc3F)c2=O)cnn1C [IV-84]
- herbicidal effect, Green Foxtail [1]: 3 (50 to less than 70% of herbicidal effect and crop phytotoxicity)
- herbicidal effect, Slender Amaranth [2]: 4 (70 to less than 90% of herbicidal effect and crop phytotoxicity)
- herbicidal effect, Barnyardgrass [3]: 4 (70 to less than 90% of herbicidal effect and crop phytotoxicity)
- herbicidal effect, Velvetleaf [4]: 5 (90% or more of herbicidal effect and crop phytotoxicity)
- herbicidal effect (index), Green Foxtail [5]: 5 (90% or more of herbicidal effect and crop phytotoxicity)
- herbicidal effect (index), Slender Amaranth [6]: 5 (90% or more of herbicidal effect and crop phytotoxicity)
- herbicidal effect (index), Barnyardgrass [7]: 5 (90% or more of herbicidal effect and crop phytotoxicity)
- herbicidal effect (index), Velvetleaf [8]: 5 (90% or more of herbicidal effect and crop phytotoxicity)
- herbicidal effect, Echinochloa oryzicola Vasing [9]: 5 (90% or more of herbicidal effect and crop phytotoxicity)
- herbicidal effect, Scirpus juncoides Roxb. [10]: 5 (90% or more of herbicidal effect and crop phytotoxicity)
- herbicidal effect, Monochoria vaginalis (Burm. f.) C. Presl [11]: 5 (90% or more of herbicidal effect and crop phytotoxicity)

Structure (SMILES): COCCn1c(C(F)(F)F)ccc(C(=O)C2=C(O)C3CCC(C3)C2=O)c1=O (stereo not shown) [III-19]
- herbicidal effect, Green Foxtail [1]: 5 (90% or more of herbicidal effect and crop phytotoxicity)
- herbicidal effect, Slender Amaranth [2]: 5 (90% or more of herbicidal effect and crop phytotoxicity)
- herbicidal effect, Barnyardgrass [3]: 5 (90% or more of herbicidal effect and crop phytotoxicity)
- herbicidal effect, Velvetleaf [4]: 5 (90% or more of herbicidal effect and crop phytotoxicity)
- herbicidal effect (index), Green Foxtail [5]: 5 (90% or more of herbicidal effect and crop phytotoxicity)
- herbicidal effect (index), Slender Amaranth [6]: 5 (90% or more of herbicidal effect and crop phytotoxicity)
- herbicidal effect (index), Barnyardgrass [7]: 5 (90% or more of herbicidal effect and crop phytotoxicity)
- herbicidal effect (index), Velvetleaf [8]: 5 (90% or more of herbicidal effect and crop phytotoxicity)
- herbicidal effect, Echinochloa oryzicola Vasing [9]: 5 (90% or more of herbicidal effect and crop phytotoxicity)
- herbicidal effect, Scirpus juncoides Roxb. [10]: 5 (90% or more of herbicidal effect and crop phytotoxicity)
- herbicidal effect, Monochoria vaginalis (Burm. f.) C. Presl [11]: 5 (90% or more of herbicidal effect and crop phytotoxicity)

Structure (SMILES): CCCS(=O)(=O)Oc1c(C(=O)c2ccc(C(F)(F)F)n(CC(OC)OC)c2=O)cnn1C [IV-118]
- herbicidal effect, Green Foxtail [1]: 5 (90% or more of herbicidal effect and crop phytotoxicity)
- herbicidal effect, Slender Amaranth [2]: 5 (90% or more of herbicidal effect and crop phytotoxicity)
- herbicidal effect, Barnyardgrass [3]: 5 (90% or more of herbicidal effect and crop phytotoxicity)
- herbicidal effect, Velvetleaf [4]: 5 (90% or more of herbicidal effect and crop phytotoxicity)
- herbicidal effect (index), Green Foxtail [5]: 5 (90% or more of herbicidal effect and crop phytotoxicity)
- herbicidal effect (index), Slender Amaranth [6]: 5 (90% or more of herbicidal effect and crop phytotoxicity)
- herbicidal effect (index), Barnyardgrass [7]: 5 (90% or more of herbicidal effect and crop phytotoxicity)
- herbicidal effect (index), Velvetleaf [8]: 5 (90% or more of herbicidal effect and crop phytotoxicity)
- herbicidal effect, Echinochloa oryzicola Vasing [9]: 5 (90% or more of herbicidal effect and crop phytotoxicity)
- herbicidal effect, Scirpus juncoides Roxb. [10]: 5 (90% or more of herbicidal effect and crop phytotoxicity)
- herbicidal effect, Monochoria vaginalis (Burm. f.) C. Presl [11]: 5 (90% or more of herbicidal effect and crop phytotoxicity)

Structure (SMILES): O=C1CCCC(O)=C1C(=O)c1ccc(C(F)(F)F)n(N2CCCC2)c1=O [I-177]
- herbicidal effect, Green Foxtail [1]: 4 (70 to less than 90% of herbicidal effect and crop phytotoxicity)
- herbicidal effect, Slender Amaranth [2]: 5 (90% or more of herbicidal effect and crop phytotoxicity)
- herbicidal effect, Barnyardgrass [3]: 5 (90% or more of herbicidal effect and crop phytotoxicity)
- herbicidal effect, Velvetleaf [4]: 5 (90% or more of herbicidal effect and crop phytotoxicity)
- herbicidal effect (index), Green Foxtail [5]: 5 (90% or more of herbicidal effect and crop phytotoxicity)
- herbicidal effect (index), Slender Amaranth [6]: 5 (90% or more of herbicidal effect and crop phytotoxicity)
- herbicidal effect (index), Barnyardgrass [7]: 5 (90% or more of herbicidal effect and crop phytotoxicity)
- herbicidal effect (index), Velvetleaf [8]: 5 (90% or more of herbicidal effect and crop phytotoxicity)
- herbicidal effect, Echinochloa oryzicola Vasing [9]: 5 (90% or more of herbicidal effect and crop phytotoxicity)
- herbicidal effect, Scirpus juncoides Roxb. [10]: 5 (90% or more of herbicidal effect and crop phytotoxicity)
- herbicidal effect, Monochoria vaginalis (Burm. f.) C. Presl [11]: 5 (90% or more of herbicidal effect and crop phytotoxicity)

Structure (SMILES): O=C1CCCC(O)=C1C(=O)c1ccc(C(F)(F)F)n(Cc2ccccc2)c1=O [I-114]
- herbicidal effect, Green Foxtail [1]: 4 (70 to less than 90% of herbicidal effect and crop phytotoxicity)
- herbicidal effect, Slender Amaranth [2]: 5 (90% or more of herbicidal effect and crop phytotoxicity)
- herbicidal effect, Barnyardgrass [3]: 5 (90% or more of herbicidal effect and crop phytotoxicity)
- herbicidal effect, Velvetleaf [4]: 5 (90% or more of herbicidal effect and crop phytotoxicity)
- herbicidal effect (index), Green Foxtail [5]: 4 (70 to less than 90% of herbicidal effect and crop phytotoxicity)
- herbicidal effect (index), Slender Amaranth [6]: 5 (90% or more of herbicidal effect and crop phytotoxicity)
- herbicidal effect (index), Barnyardgrass [7]: 5 (90% or more of herbicidal effect and crop phytotoxicity)
- herbicidal effect (index), Velvetleaf [8]: 5 (90% or more of herbicidal effect and crop phytotoxicity)
- herbicidal effect, Echinochloa oryzicola Vasing [9]: 5 (90% or more of herbicidal effect and crop phytotoxicity)
- herbicidal effect, Scirpus juncoides Roxb. [10]: 5 (90% or more of herbicidal effect and crop phytotoxicity)
- herbicidal effect, Monochoria vaginalis (Burm. f.) C. Presl [11]: 5 (90% or more of herbicidal effect and crop phytotoxicity)

Structure (SMILES): O=C1CCCC(O)=C1C(=O)c1ccc(C(F)(F)F)n(-c2ccc(C(F)(F)F)cc2)c1=O [I-86]
- herbicidal effect (index), Green Foxtail [1]: 5 (90% or more of herbicidal effect and crop phytotoxicity)
- herbicidal effect (index), Slender Amaranth [2]: 5 (90% or more of herbicidal effect and crop phytotoxicity)
- herbicidal effect (index), Barnyardgrass [3]: 5 (90% or more of herbicidal effect and crop phytotoxicity)
- herbicidal effect (index), Velvetleaf [4]: 5 (90% or more of herbicidal effect and crop phytotoxicity)
- herbicidal effect (index), Green Foxtail [5]: 5 (90% or more of herbicidal effect and crop phytotoxicity)
- herbicidal effect (index), Slender Amaranth [6]: 5 (90% or more of herbicidal effect and crop phytotoxicity)
- herbicidal effect (index), Barnyardgrass [7]: 5 (90% or more of herbicidal effect and crop phytotoxicity)
- herbicidal effect (index), Velvetleaf [8]: 5 (90% or more of herbicidal effect and crop phytotoxicity)
- herbicidal effect, Echinochloa oryzicola Vasing [9]: 5 (90% or more of herbicidal effect and crop phytotoxicity)
- herbicidal effect, Scirpus juncoides Roxb. [10]: 5 (90% or more of herbicidal effect and crop phytotoxicity)
- herbicidal effect, Monochoria vaginalis (Burm. f.) C. Presl [11]: 5 (90% or more of herbicidal effect and crop phytotoxicity)

Structure (SMILES): CC(C)(C)S(=O)(=O)Cn1c(C(F)(F)F)ccc(C(=O)C2=C(O)CCCC2=O)c1=O [I-56]
- herbicidal effect (index), Green Foxtail [1]: 5 (90% or more of herbicidal effect and crop phytotoxicity)
- herbicidal effect (index), Slender Amaranth [2]: 5 (90% or more of herbicidal effect and crop phytotoxicity)
- herbicidal effect (index), Barnyardgrass [3]: 5 (90% or more of herbicidal effect and crop phytotoxicity)
- herbicidal effect (index), Velvetleaf [4]: 5 (90% or more of herbicidal effect and crop phytotoxicity)
- herbicidal effect (index), Green Foxtail [5]: 5 (90% or more of herbicidal effect and crop phytotoxicity)
- herbicidal effect (index), Slender Amaranth [6]: 5 (90% or more of herbicidal effect and crop phytotoxicity)
- herbicidal effect (index), Barnyardgrass [7]: 4 (70 to less than 90% of herbicidal effect and crop phytotoxicity)
- herbicidal effect (index), Velvetleaf [8]: 5 (90% or more of herbicidal effect and crop phytotoxicity)
- herbicidal effect, Echinochloa oryzicola Vasing [9]: 5 (90% or more of herbicidal effect and crop phytotoxicity)
- herbicidal effect, Scirpus juncoides Roxb. [10]: 5 (90% or more of herbicidal effect and crop phytotoxicity)
- herbicidal effect, Monochoria vaginalis (Burm. f.) C. Presl [11]: 5 (90% or more of herbicidal effect and crop phytotoxicity)

Structure (SMILES): CCn1c(C(F)(F)F)ccc(C(=O)c2cnn(C)c2O)c1=O [IV-2]
- herbicidal effect, Green Foxtail [1]: 5 (90% or more of herbicidal effect and crop phytotoxicity)
- herbicidal effect, Slender Amaranth [2]: 5 (90% or more of herbicidal effect and crop phytotoxicity)
- herbicidal effect, Barnyardgrass [3]: 5 (90% or more of herbicidal effect and crop phytotoxicity)
- herbicidal effect, Velvetleaf [4]: 5 (90% or more of herbicidal effect and crop phytotoxicity)
- herbicidal effect (index), Green Foxtail [5]: 5 (90% or more of herbicidal effect and crop phytotoxicity)
- herbicidal effect (index), Slender Amaranth [6]: 5 (90% or more of herbicidal effect and crop phytotoxicity)
- herbicidal effect (index), Barnyardgrass [7]: 5 (90% or more of herbicidal effect and crop phytotoxicity)
- herbicidal effect (index), Velvetleaf [8]: 5 (90% or more of herbicidal effect and crop phytotoxicity)
- herbicidal effect, Echinochloa oryzicola Vasing [9]: 5 (90% or more of herbicidal effect and crop phytotoxicity)
- herbicidal effect, Scirpus juncoides Roxb. [10]: 5 (90% or more of herbicidal effect and crop phytotoxicity)
- herbicidal effect, Monochoria vaginalis (Burm. f.) C. Presl [11]: 5 (90% or more of herbicidal effect and crop phytotoxicity)
